Test results published in patent US10421784B2, “Cell penetrating peptides for intracellular delivery of molecules” (AADIGEN, LLC, priority 2012, dated 2019).
Where two headings read alike, the source gives them in different places. Where a SMILES comes first, the peptide text is derived from it.

Assays:
[1] = tested on: SKB3; test: Inhibition of cancer cell proliferation by delivered drugs; assay type: cell-based
[2] = tested on: MCF7; test: as above; assay type: cell-based; details: Homo sapiens
[3] = Fluorescence titration, VEPEP-9/cargo binding; details: cargo SHM
Procedure: (§1) Fluorescence experiments were performed on a PTI spectrofluorimeter at 25° C. in a NaCl 154 mM buffer. Intrinsic Trp-fluorescence of VEPEP-9 was excited at 290 nm and emission spectrum was recorded between 310 and 400 nm, with a spectral band-pass of 2 and 8 nm for excitation and emission, respectively. FITC- or CY5-fluorescence of labelled-peptide or Oligonucleotide were excited at 492 nm and emission recorded between 500 and 580 nm. For VEPEP-9/peptide interaction, 0.5 μM of FITC-labelled peptide was titrated by increasing concentrations of VEPEP-9. For VEPEP-9/oligonucleotide interaction, 200 nM of FITC or CY5-labelled oligodeoxynucleotide (ODN) was titrated by increasing concentrations of VEPEP-9. All measurements were corrected for the dilution and curve fitting were performed by using Grafit software (Erithacus).
(§2) VEPEP-9 peptide form stable complexes with peptides and ODN. The binding of cargos to VEPEP-9 was monitored by fluorescence spectroscopy using the both intrinsic Trp group of VEPEP-9 (3 to 5 Trp-residues) and extrinsic fluorescently labelled cargoes (using Cy3, Cy5 or FITC). Curve fitting reveal that VEPEP-9 strongly binds the different cargoes with dissociation constant in the nanomolar range (Tables 1 and 2 and FIG. 2).
(§3) VEPEP-9 peptides form stable particles with different cargoes including peptide, siRNA, PNA and small aromatic (FIG. 2). The dissociation constant for peptide, siRNA, PNA and small hydrophobic molecule ranges between 10-100 nM, 5-50 nM, 5-50 nM and 0.02 to 0.2 μM, respectively, depending on the nature of the dyes and of the cargoes.

[4] = tested on: PNA (15 mer -PNA); test: Fluorescence titration, VEPEP-9/cargo binding; details: cargo PNA (15 mer)
Procedure: as §1, §2, §3

[5] = tested on: Peptide (C4); test: Fluorescence titration, VEPEP-9/cargo binding; details: cargo peptide (C4)
Procedure: as §1, §2, §3

[6] = tested on: siRNA; test: Fluorescence titration, VEPEP-9/cargo binding; details: cargo siRNA
Procedure: as §1, §2, §3

[7] = Fluorescence titration, VEPEP-9/SHM binding
Procedure: as §1
Binding of small molecule cargoes has been investigated in detailed depending on the nature of the SHM. Several hydrophobic molecules have been used (Daunomycin, Paclitaxel, doxorubicin, porphyrin), as well as charged molecules (nucleotide, nucleoside and fluorescent dyes).

[8] = tested on: non-transformed HS68 fibroblasts; test: Cell proliferation after VEPEP-9 mediated delivery; assay type: cell-based, Human
Procedure: (§4) Adherent HS68 fibroblasts, HeLa, PC3, MCF-7, SCK3-Her2, PBMC cell lines (from American Type Culture Collection (ATCC)) were cultured in Dulbecco's Modified Eagle's Medium supplemented with 2 mM glutamine, 1% antibiotics (streptomycin 10,000 μg/ml, penicillin, 10,000 IU/ml) and 10% (w/v) foetal calf serum (FCS), at 37° C. in a humidified atmosphere containing 5% CO2. Stock solutions of VEPEP-9/peptide particles were prepared by complexing 1 μM peptide with VEPEP-9 peptides at a molar ratio of 1/20 for 30 min at 37° C. Lower concentrations of VEPEP-9-carrier/peptide (from 500 nM to 1 μM) were obtained by serial dilution of the stock complexes in PBS, in order to preserve the same VEPEP-9-carrier/peptide ratio. Stock solutions of VEPEP-9/siRNA particles were prepared by complexing 100 nM siRNA with VEPEP-9 peptides at a molar ratio of 1/20 for 30 min at 37° C. Lower concentrations of VEPEP-9/siRNA (from 20 nM to 0.125 nM) were obtained by serial dilution of the stock complexes in PBS, in order to preserve the same VEPEP-9/siRNA ratio. […] For cdk2 derived peptides, cell proliferation was monitored after 24 and 48 hrs. For siRNA targeting Cyclin B1, Cyclin B1 mRNA level was determined 24 hrs following transduction, using Quantigen (Pommies Inc.). […]

[9] = tested on: Hela, MCF7, HEK-2 and U2OS cells; test: Cell proliferation after VEPEP-9 mediated delivery; assay type: cell-based
Procedure: as §4

[10] = tested on: cultured cells; test: Cell cycle progression / cyclin B1 levels in cultured cells; assay type: cell-based; details: for concentration at which 4 N accumulation was optimally obtained: VEPEP-9 mediated delivery
[11] = tested on: HEK-2; test: G2 arrest (accumulation of cells with 4 N content); assay type: cell-based; details: Cyclin B1 siRNA delivered with VEPEP-9
[12] = tested on: PC3, A549, or SCK-3-HEK2-xenografted mice; test: Tumour growth and cyclin B1 mRNA, siRNA controls; assay type: in vivo
Procedure: (§5) For siRNA treatment: Two to three weeks after tumour implant, when tumour size reached about 100 mm^3, animals were treated by intratumoral or intravenous injection, every 3 days, with a solution of 0.1 ml of either free Cyc-B1 siRNA (50 or 100 μg), control siRNA Cyc-B3 or Cyc-B1 siRNA (1, 5, 10 μg) complexed with NANOPEP-9 at a 1/20 molar ratio.
Athymic female nude mice (6-8 weeks of age) were subcutaneously inoculated into the flank with 1×10^6 PC3 (prostate cancer), A549 (lung cancer) or SCK-3-HEK2 (ovarian cancer) cells in 100 μl PBS. Two to three weeks after tumour implant, when tumour size reached about 100 mm^3, animals were treated by intratumoral or intravenous injection, every 3 days, with a solution of 0.1 ml of either free Cyc-B1 siRNA (50 or 100 μg), control siRNA Cyc-B3 or Cyc-B1 siRNA (5, 10 μg) complexed with NANOPEP-9b or NANOPEP-9e particles. The “core” shell of the particles was formed using VEVEP-9b or VEPEP-9e peptide at a molar ratio of 20/1 with a siRNA targeting cycline B1. siRNA stock solutions are in 50 mM Tris, 0.5 mM EDTA buffer or in RNase free water. VEPEP-9 peptides were solubilised in water and stock solution of peptide was sonicated for 10 min in a water bath before complex formation. Then VEPEP-9/siRNA complexes were formed by adding siRNA into the peptide solution and incubating at 37° C. for 20-30 minutes to allow the carrier peptide/siRNA complexes to form. NANOPEP-9 particles contain a VEPEP-9/siRNA “core shell” surrounded by additional VEPEP-9 at a 1/20 molar ratio.
The potential of NANOPEP-9b or NANOPEP-9e to deliver cyclin B1 siRNA in vivo was evaluated on PC3, A549, or SCK-3-HEK2-xenografted mice (FIGS. 13A-13B). The effect of local intratumoral administration of NANOPEP-9/siRNA particles (molar ratio 20/1) on the growth of established subcutaneous tumours was evaluated. At day 50, tumor sizes in the control cohort, injected with PBS increased by about 3 to 5 fold. […] At day 48, it was validated that the Cyc-B1 siRNA mediated inhibition of tumour growth was directly associated with a decrease in the level of cyclin B1 mRNA.

[13] = tested on: PC3 tumor; test: Tumour size, intravenous Cyc B1 siRNA in NANOPEP-9; assay type: in vivo, mice; details: intravenous every three days, day 50
Procedure: as §5
Athymic female nude mice (6-8 weeks of age) were subcutaneously inoculated into the flank with 1×10^6 PC3 (prostate cancer), A549 (lung cancer) or SCK-3-HEK2 (ovarian cancer) cells in 100 μl PBS. Two to three weeks after tumour implant, when tumour size reached about 100 mm^3, animals were treated by intratumoral or intravenous injection, every 3 days, with a solution of 0.1 ml of either free Cyc-B1 siRNA (50 or 100 μg), control siRNA Cyc-B3 or Cyc-B1 siRNA (5, 10 μg) complexed with NANOPEP-9b or NANOPEP-9e particles. The “core” shell of the particles was formed using VEVEP-9b or VEPEP-9e peptide at a molar ratio of 20/1 with a siRNA targeting cycline B1. siRNA stock solutions are in 50 mM Tris, 0.5 mM EDTA buffer or in RNase free water. VEPEP-9 peptides were solubilised in water and stock solution of peptide was sonicated for 10 min in a water bath before complex formation. […]

[14] = tested on: HT29 tumor; test: Tumour size, intravenous Cyc B1 siRNA in NANOPEP-9; assay type: in vivo, mice; details: intravenous every three days, day 50
Procedure: NANOPEP-9b and NANOPEP-9e particles were used for systemic intravenous administration. Five micrograms (0.25 mg/kg) and 10 μg (0.5 mg/kg) of Cyc B1 siRNA in NANOPEP-9b and NANOPEP-9e particles were injected intravenously every three days into mice bearing xenografted tumors.

[15] = tested on: Hela; details: read-out: IC50, block of proliferation, siRNA delivered with VEPEP-9b and VEPEP-9e
Procedure: (§6) Adherent HS68 fibroblasts, HeLa, PC3, MCF-7, SCK3-Her2, PBMC cell lines (from American Type Culture Collection (ATCC)) were cultured in Dulbecco's Modified Eagle's Medium supplemented with 2 mM glutamine, 1% antibiotics (streptomycin 10,000 μg/ml, penicillin, 10,000 IU/ml) and 10% (w/v) foetal calf serum (FCS), at 37° C. in a humidified atmosphere containing 5% CO2. […] Stock solutions of VEPEP-9/siRNA particles were prepared by complexing 100 nM siRNA with VEPEP-9 peptides at a molar ratio of 1/20 for 30 min at 37° C. Lower concentrations of VEPEP-9/siRNA (from 20 nM to 0.125 nM) were obtained by serial dilution of the stock complexes in PBS, in order to preserve the same VEPEP-9/siRNA ratio. 150,000 cells seeded in a 35 mm dish the day prior transfection, were grown to 60% confluence and overlaid with 200 μl of preformed complexes, incubated for 3-5 min, then 400 μl of DMEM were added. After 30 min. incubation at 37° C., 1 ml of fresh DMEM containing 16% foetal calf serum (FCS) was added in order to reach a final FCS concentration of 10%, without removing the overlay of VEPEP-9/cargo complexes. Cells were returned to the incubator for 24 hrs. For cdk2 derived peptides, cell proliferation was monitored after 24 and 48 hrs. For siRNA targeting Cyclin B1, Cyclin B1 mRNA level was determined 24 hrs following transduction, using Quantigen (Pommies Inc.). […]

[16] = tested on: MCF7; details: read-out: IC50, block of proliferation, siRNA delivered with VEPEP-9b and VEPEP-9e
Procedure: as §6

[17] = tested on: Hela; details: read-out: IC50, accumulation of cells with a 4 N content (G2 arrest), Cyclin B1 siRNA delivered with VEPEP-9
[18] = tested on: MCF7; details: read-out: IC50, accumulation of cells with a 4 N content (G2 arrest), Cyclin B1 siRNA delivered with VEPEP-9
[19] = drug complexed with VEPEP-9a at molar ratio 1/20, read-out: VEPEP-9a IC50
[20] = drug complexed with VEPEP-9b at molar ratio 1/20, read-out: VEPEP-9b IC50
[21] = drug complexed with VEPEP-9f at molar ratio 1/20, read-out: VEPEP-9f IC50
[22] = drug complexed with VEPEP-9d at molar ratio 1/20, read-out: VEPEP-9d IC50
[23] = free drug, read-out: Free drug IC50

CC(=O)O[C@H]1C(=O)[C@@]2(C)[C@H]([C@H](OC(=O)c3ccccc3)[C@]3(O)C[C@H](OC(=O)[C@H](O)[C@@H](NC(=O)c4ccccc4)c4ccccc4)C(C)=C1C3(C)C)[C@]1(OC(C)=O)CO[C@@H]1C[C@@H]2O [Taxol, taxol]
IC50 [1, 19]: 700 nM
IC50 [1, 20]: 650 nM
IC50 [1, 21]: 900 nM
IC50 [1, 22]: 700 nM
IC50 [1, 23]: 10000 nM
IC50 [2, 19]: 800 nM
IC50 [2, 20]: 120 nM
IC50 [2, 21]: 800 nM
IC50 [2, 22]: 500 nM
IC50 [2, 23]: 7000 nM

X1WWRWWASWARSWWR [VEPEP-9d, X1 is beta-A or S]
Binding [3]: Yes
Kd [3]: 20 to 100 nM
Binding [4]: Yes
Kd [4]: > 50 nM
Binding [5]: yes
Binding [6]: yes
Kd [6]: > 200 nM
Binding ([7]; cargo AZT): yes
Kd ([7]; cargo AZT): 20 nM
Binding ([7]; cargo Doxorubicin): yes
Kd ([7]; cargo Doxorubicin): 90 nM
Binding ([7]; cargo FAM-guanosine): yes
Kd ([7]; cargo FAM-guanosine): 400 nM
Binding ([7]; cargo porphyrin): yes
Kd ([7]; cargo porphyrin): 250 nM

CSCC[C@H](NC(=O)[C@H](CCCNC(=N)N)NC(=O)[C@@H](NC(=O)[C@H](CCC(N)=O)NC(=O)[C@H](CCCCN)NC(=O)[C@@H](N)CCCCN)C(C)C)C(=O)N[C@@H](C)C(=O)N[C@@H](Cc1c[nH]cn1)C(=O)N[C@@H](CC(C)C)C(=O)N[C@H](C(=O)N[C@@H](CC(C)C)C(=O)N[C@H](C(=O)O)[C@@H](C)O)C(C)C [C4, KKQVRMAHLVLT] (H-KKQVRMAHLVLT-OH; N-terminus and C-terminus assumed)
reduction of proliferation [8]: 10%
concentration sufficient to block proliferation [9]: 200 nM
concentration at which 4 N accumulation was optimally obtained [10]: 200 nM

siRNA: siRNA targeting Cyclin B1; sense 5′GGCGAAGAUCAACAUGGCATT3′, antisense 5′UGCCAUGUUGAUCUUCGCCTT3′ (chemistry not given here)
reduction of proliferation [8]: 10%
concentration sufficient to block proliferation [9]: 20 nM
IC50 [11]: 1.2 ± 0.6 nM
concentration at which 4 N accumulation was optimally obtained [10]: 20 nM
effect on tumour growth ([12]; 100 μg naked siRNA (intratumoral or intravenous) or carrier alone): no significant effect
level of cyclin B1 mRNA in tumour ([12]; day 48): decrease
inhibition (reduction in tumor size) ([13]; 5 μg siRNA in NANOPEP-9b and NANOPEP-9e particles): 65%
inhibition (reduction in tumor size) ([13]; 10 μg siRNA in NANOPEP-9b and NANOPEP-9e particles): 90%
inhibition (reduction in tumor size) ([14]; 5 μg siRNA): 35%
inhibition (reduction in tumor size) ([14]; 10 μg siRNA): 70%
IC50 [15]: 3.1 ± 0.2 nM
IC50 [16]: 1.6 ± 0.5 nM
IC50 [17]: 2.4 ± 0.8 nM
IC50 [18]: 1.9 ± 0.9 nM

X1WWGSWATPRRRWWR [VEPEP-9e, X1 is beta-A or S]
Binding [3]: Yes
Kd [3]: 20 to 100 nM
Binding [4]: Yes
Kd [4]: 5 to 50 nM
Binding [5]: yes
Binding [6]: yes
Kd [6]: 5 to 50 nM
Binding ([7]; cargo AZT): yes
Kd ([7]; cargo AZT): 90 nM
Binding ([7]; cargo Doxorubicin): yes
Kd ([7]; cargo Doxorubicin): 50 nM
Binding ([7]; cargo FAM-guanosine): yes
Kd ([7]; cargo FAM-guanosine): 1100 nM
Binding ([7]; cargo porphyrin): yes
Kd ([7]; cargo porphyrin): 200 nM
effect on cyclin B1 levels and cell cycle progression ([10]; carrier alone (100 μM)): no effect

Cyc-B3: mismatch cyclin B1 siRNA harbouring two mutations; sense 5′GGUGAAGAUCAGCAUGGCATT3′ (antisense UGCCAUGUCGAUCUUCACCTT; chemistry not given here)
effect on cyclin B1 levels and cell cycle progression ([10]; 200 nM, complexed with VEPEP-9 at a 20/1 ratio): no effect
inhibition of tumour growth ([12]; complexed with NANOPEP-9e, 0.5 mg/kg): unable to inhibit tumour growth
